Measurements as given in PubChem BioAssay AID652076 (The Scripps Research Institute Molecular Screening Center, 2013).
Activity calls are given as the source filed them. The rule behind the calls is not given here.

Molecular target: Cytochrome P450 1A2 (Homo sapiens) (UniProt P05177)
Test: CYP1A2 enzyme inhibition, late-stage follow-up, biochemical (AID 652076)
Details: Human CYP inhibition panel, LC-MS/MS marker substrate metabolism

Cytochrome P450 1A2 (Homo sapiens), sequence (P05177 whole entry, looked up): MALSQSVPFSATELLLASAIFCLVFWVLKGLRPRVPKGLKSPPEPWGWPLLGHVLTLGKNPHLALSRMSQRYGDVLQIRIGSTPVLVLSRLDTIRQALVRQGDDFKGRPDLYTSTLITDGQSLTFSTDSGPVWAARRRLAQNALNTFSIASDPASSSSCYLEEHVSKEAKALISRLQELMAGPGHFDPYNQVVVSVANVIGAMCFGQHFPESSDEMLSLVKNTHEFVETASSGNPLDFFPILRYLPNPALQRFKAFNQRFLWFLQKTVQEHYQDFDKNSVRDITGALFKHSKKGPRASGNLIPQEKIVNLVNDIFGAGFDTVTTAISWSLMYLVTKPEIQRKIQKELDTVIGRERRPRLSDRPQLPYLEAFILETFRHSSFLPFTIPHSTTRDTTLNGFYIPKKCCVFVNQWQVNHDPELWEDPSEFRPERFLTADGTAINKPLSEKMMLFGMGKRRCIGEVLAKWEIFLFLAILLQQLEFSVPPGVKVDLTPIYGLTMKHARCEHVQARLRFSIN

outcome: active
inhibition (CYP1A2, at 10 µM, active compounds read high): -9%
SMILES: COC(=O)c1cc(Br)cnc1N1CCC(NC2CCCCC2)C(O)C1 (configuration not stated)
